According to PubChem BioAssay (NCI):
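These data come from cells grown in 96-well plates and exposed to compound for 48 hours at five concentrations. Here, GI50 denotes the concentration required for 50% inhibition of growth. Definition used: TGI = concentration required for complete inhibition of growth.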

Assays:
Test in all cases: DTP human tumour cell line panel, 48 h
MDA-MB-435 = system: MDA-MB-435
KM12 colon = system: KM12 colon
HCC-2998 colon = system: HCC-2998 colon
MALME-3M melanoma = system: MALME-3M melanoma
SK-OV-3 ovarian = system: SK-OV-3 ovarian
OVCAR-5 ovarian = system: OVCAR-5 ovarian
SW-620 colon = system: SW-620 colon
OVCAR-4 ovarian = system: OVCAR-4 ovarian
MDA-MB-231 breast = system: MDA-MB-231 breast
UACC-257 melanoma = system: UACC-257 melanoma

## CN1CCN(Cc2ccc(NC(=O)c3cncc(C#Cc4cnc(N)c5cccnc45)c3)cc2C(F)(F)F)CC1
MDA-MB-435
  GI50: 0.15 µM
KM12 colon
  GI50: 0.069 µM
  TGI: > 50 µM
HCC-2998 colon
  GI50: 0.484 µM
  TGI: > 50 µM
MALME-3M melanoma
  GI50: 0.0558 µM
  TGI: 0.273 µM
SK-OV-3 ovarian
  GI50: 0.203 µM
  TGI: > 50 µM
OVCAR-5 ovarian
  GI50: 0.537 µM
  TGI: > 50 µM
SW-620 colon
  GI50: 0.262 µM
  TGI: 2.9 µM
OVCAR-4 ovarian
  GI50: 0.149 µM
  TGI: > 50 µM
MDA-MB-231 breast
  GI50: 0.137 µM
  TGI: 0.975 µM
UACC-257 melanoma
  GI50: 0.273 µM
  TGI: > 50 µM

## CCOP(=O)(OCC)C(C(=O)OC)C(=O)C(=O)Nc1cccc(O)c1 (stereo not drawn)
MDA-MB-435
  TGI: > 100 µM
KM12 colon
  TGI: > 100 µM
HCC-2998 colon
  TGI: > 100 µM
MALME-3M melanoma
  TGI: > 100 µM
SK-OV-3 ovarian
  TGI: > 100 µM
OVCAR-5 ovarian
  TGI: > 100 µM
SW-620 colon
  TGI: > 100 µM
OVCAR-4 ovarian
  TGI: > 100 µM
MDA-MB-231 breast
  TGI: > 100 µM
UACC-257 melanoma
  TGI: > 100 µM

## C=CCC(N[C@@H](CO)c1ccccc1)c1cn(C(=O)OCC)c2ccccc12 (stereo partly drawn)
MDA-MB-435
  GI50: 22.7 µM
  TGI: 55.9 µM
KM12 colon
  GI50: 15.2 µM
  TGI: 33.6 µM
HCC-2998 colon
  GI50: 16.3 µM
  TGI: 31.8 µM
MALME-3M melanoma
  GI50: 17.1 µM
  TGI: 39.1 µM
SK-OV-3 ovarian
  GI50: 49.1 µM
  TGI: > 100 µM
OVCAR-5 ovarian
  GI50: 23.3 µM
  TGI: 66.1 µM
SW-620 colon
  GI50: 28.6 µM
  TGI: > 100 µM
OVCAR-4 ovarian
  GI50: 81.5 µM
  TGI: > 100 µM
MDA-MB-231 breast
  GI50: 20.6 µM
  TGI: 43.5 µM
UACC-257 melanoma
  GI50: 22.9 µM
  TGI: 66 µM

## CC(=O)C1=C(O)C=C2Oc3c(C(=O)/C=C/c4cc(Cl)cc(Cl)c4)c(O)c(C)c(O)c3[C@]2(C)C1=O
MDA-MB-435
  GI50: 0.493 µM
  TGI: 1.87 µM
KM12 colon
  GI50: 0.46 µM
  TGI: 1.76 µM
HCC-2998 colon
  GI50: 0.667 µM
  TGI: 2.69 µM
MALME-3M melanoma
  GI50: 0.335 µM
  TGI: 0.739 µM
SK-OV-3 ovarian
  GI50: 0.449 µM
  TGI: 1.33 µM
OVCAR-5 ovarian
  GI50: 0.72 µM
  TGI: 8.57 µM
SW-620 colon
  GI50: 0.527 µM
  TGI: 2.21 µM
OVCAR-4 ovarian
  GI50: 0.565 µM
  TGI: 7.17 µM
MDA-MB-231 breast
  GI50: 0.541 µM
  TGI: 1.85 µM
UACC-257 melanoma
  GI50: 0.535 µM
  TGI: 2.5 µM

## Cc1cc2c(-c3nc4ccccn4c3N)c(O)c(O)cc2c(O)c1-c1c(C)cc2c(-c3nc4ccccn4c3N)c(O)c(O)cc2c1O
MDA-MB-435
  GI50: 0.716 µM
  TGI: > 25 µM
KM12 colon
  GI50: 0.227 µM
  TGI: > 25 µM
HCC-2998 colon
  GI50: 1.59 µM
  TGI: > 25 µM
MALME-3M melanoma
  GI50: 0.81 µM
  TGI: > 25 µM
SK-OV-3 ovarian
  GI50: 0.805 µM
  TGI: 6.03 µM
OVCAR-5 ovarian
  GI50: 1.69 µM
  TGI: > 25 µM
SW-620 colon
  GI50: 0.988 µM
  TGI: > 25 µM
OVCAR-4 ovarian
  GI50: 4.85 µM
  TGI: > 25 µM
MDA-MB-231 breast
  GI50: 3.11 µM
  TGI: > 25 µM
UACC-257 melanoma
  GI50: 2.9 µM
  TGI: > 25 µM

## CC(=O)[C@H]1CCC/C=C/[C@@H]2C[C@H](O)C[C@H]2[C@H](O)/C=C/C(=O)O1
MDA-MB-435
  GI50: 0.428 µM
  TGI: > 100 µM
KM12 colon
  GI50: 0.75 µM
  TGI: > 19.7 µM
HCC-2998 colon
  GI50: 1.33 µM
  TGI: 5.07 µM
MALME-3M melanoma
  GI50: 0.27 µM
  TGI: 3.4 µM
SK-OV-3 ovarian
  GI50: 2.43 µM
  TGI: > 31.6 µM
OVCAR-5 ovarian
  GI50: 2.1 µM
  TGI: > 62.6 µM
SW-620 colon
  GI50: 0.344 µM
  TGI: 1.56 µM
OVCAR-4 ovarian
  GI50: 0.434 µM
  TGI: > 22.2 µM
MDA-MB-231 breast
  GI50: 0.487 µM
  TGI: 2.39 µM
UACC-257 melanoma
  GI50: 0.332 µM

## CCOC(=O)C(C#N)C1=CC(=O)C(=O)c2ccc(O)cc21 (stereo not drawn)
MDA-MB-435
  TGI: 39.9 µM
KM12 colon
  TGI: > 100 µM
HCC-2998 colon
  TGI: > 100 µM
MALME-3M melanoma
  TGI: > 100 µM
SK-OV-3 ovarian
  TGI: > 100 µM
OVCAR-5 ovarian
  TGI: > 100 µM
SW-620 colon
  TGI: > 100 µM
OVCAR-4 ovarian
  TGI: > 100 µM
MDA-MB-231 breast
  TGI: > 100 µM
UACC-257 melanoma
  TGI: > 100 µM

## COC(=O)c1oc2c(C(=O)/C=C/c3ccc(OC)cc3)c(OCCN(C)C)ccc2c1C
MDA-MB-435
  GI50: 4.57 µM
  TGI: 16.3 µM
KM12 colon
  GI50: 9.43 µM
  TGI: 24.5 µM
HCC-2998 colon
  GI50: 10.2 µM
  TGI: 24.6 µM
MALME-3M melanoma
  GI50: 11.4 µM
  TGI: 27.8 µM
SK-OV-3 ovarian
  GI50: 5.14 µM
  TGI: 17.8 µM
OVCAR-5 ovarian
  GI50: 15.8 µM
  TGI: 32.9 µM
SW-620 colon
  GI50: 2.4 µM
  TGI: 7.43 µM
OVCAR-4 ovarian
  GI50: 5.06 µM
  TGI: 16.8 µM
MDA-MB-231 breast
  GI50: 8.33 µM
  TGI: 22.9 µM
UACC-257 melanoma
  GI50: 14.1 µM
  TGI: 29.2 µM

## Clc1ccccc1-c1nnc2c(Cc3ccccc3)nc3ccccc3n12
MDA-MB-435
  GI50: > 100 µM
  TGI: > 100 µM
KM12 colon
  GI50: 13.1 µM
  TGI: > 100 µM
HCC-2998 colon
  GI50: 59.9 µM
  TGI: > 100 µM
MALME-3M melanoma
  GI50: 33 µM
  TGI: > 100 µM
SK-OV-3 ovarian
  GI50: 22.5 µM
  TGI: > 100 µM
OVCAR-5 ovarian
  GI50: > 100 µM
  TGI: > 100 µM
SW-620 colon
  GI50: 20.7 µM
  TGI: > 100 µM
OVCAR-4 ovarian
  GI50: 5.55 µM
  TGI: > 100 µM
MDA-MB-231 breast
  GI50: 7.09 µM
  TGI: > 100 µM
UACC-257 melanoma
  GI50: 33.3 µM
  TGI: > 100 µM

## CC1(C)CCCC(C)(C2CCC3(C)C2C(O)CC2C4(C)CCC(O)C(C)(C)C4CCC23C)O1 (stereo not drawn)
MDA-MB-435
  TGI: > 100 µM
KM12 colon
  TGI: > 100 µM
HCC-2998 colon
  TGI: > 100 µM
MALME-3M melanoma
  TGI: > 100 µM
SK-OV-3 ovarian
  TGI: > 100 µM
OVCAR-5 ovarian
  TGI: > 100 µM
SW-620 colon
  TGI: > 100 µM
OVCAR-4 ovarian
  TGI: > 100 µM
MDA-MB-231 breast
  TGI: > 100 µM
UACC-257 melanoma
  TGI: > 100 µM

## CC(=O)N1N=C(c2ccc(Nc3nc(Nc4ccc(F)cc4)nc(Nc4ccc(F)cc4)n3)cc2)CC1c1ccc(N(C)C)cc1 (stereo not drawn)
MDA-MB-435
  GI50: 3 µM
  TGI: 11.1 µM
KM12 colon
  GI50: 3.34 µM
  TGI: 12.4 µM
HCC-2998 colon
  GI50: 15.9 µM
  TGI: > 100 µM
MALME-3M melanoma
  GI50: 11.4 µM
  TGI: 34.8 µM
SK-OV-3 ovarian
  GI50: 15.5 µM
  TGI: 53.7 µM
OVCAR-5 ovarian
  GI50: 29.5 µM
  TGI: > 100 µM
SW-620 colon
  GI50: 3.8 µM
  TGI: 18.8 µM
OVCAR-4 ovarian
  GI50: 3.77 µM
  TGI: > 100 µM
MDA-MB-231 breast
  GI50: 6.54 µM
  TGI: 29.7 µM
UACC-257 melanoma
  GI50: 7.14 µM
  TGI: 23.5 µM
